In data set [1] the target is T1, human amylin receptor (calcitonin receptor co-expressed with receptor activity modifying protein, RAMP3) (hAMYR3) (Homo sapiens, UniProt O60896+P30988).
T1 construct: expressed in transfected cells
T1 sequence (P30988 25-474): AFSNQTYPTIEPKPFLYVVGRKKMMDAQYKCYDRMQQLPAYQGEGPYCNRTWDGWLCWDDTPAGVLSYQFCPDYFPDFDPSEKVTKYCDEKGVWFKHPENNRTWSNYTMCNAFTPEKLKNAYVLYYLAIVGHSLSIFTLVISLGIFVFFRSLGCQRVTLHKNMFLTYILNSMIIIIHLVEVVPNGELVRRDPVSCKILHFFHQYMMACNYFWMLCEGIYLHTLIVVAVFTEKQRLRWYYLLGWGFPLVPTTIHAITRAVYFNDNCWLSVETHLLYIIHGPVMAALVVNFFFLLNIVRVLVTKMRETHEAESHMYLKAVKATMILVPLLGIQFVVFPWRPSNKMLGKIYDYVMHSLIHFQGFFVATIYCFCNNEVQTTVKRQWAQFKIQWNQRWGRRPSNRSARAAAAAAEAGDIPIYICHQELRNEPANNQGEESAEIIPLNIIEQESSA
T1 sequence (O60896 24-148 partner): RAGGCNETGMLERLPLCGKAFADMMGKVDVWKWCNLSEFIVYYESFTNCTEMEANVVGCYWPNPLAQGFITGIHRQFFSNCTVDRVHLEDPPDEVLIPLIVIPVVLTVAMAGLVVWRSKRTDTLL
The data set can be described thus: cAMP production in 1321N1 cells with stable recombinant expression of human amylin receptor (hAMYR3). The format is cell-based. The conditions noted are these: for Ratio (selectivity hAMYR vs hCTR, ratio of EC50 values at the two receptors): EC50 hCTR / EC50 hAMYR3; for EC50: cAMP, 1321N1 cells, assay buffer with 0.1% BSA, read-out: EC50 (pM) hAMYR3. A digest of the protocol:
(§1)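 Receptor-expressing cells (human receptors in 1321N1, rat receptors in HEK) incubated 30 min at room temperature with peptide in HBSS/HEPES pH 7.4, 0.1% BSA, 0.5 mM IBMX. cAMP read by HTRF; EC50 from 4-parameter fit as % of maximal amylin or calcitonin response.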
A general note: Changes in cAMP serve as a functional read-out for many G protein-coupled receptors.

Data set [2] concerns the target T2, human calcitonin receptor (hCTR) (Homo sapiens, UniProt P30988).
T2 construct: expressed in transfected cells
T2 sequence (P30988 25-474): T1 sequence (P30988 25-474)
Nature of the data set: cAMP production in 1321N1 cells with stable recombinant expression of human calcitonin receptor (hCTR). Particulars: cAMP, 1321N1 cells, assay buffer with 0.1% BSA; read-out: EC50 (pM) hCTR. The format is cell-based. Summed up: as §1

Another data set in a line: in vivo. Particulars: male, Sprague-Dawley, rat, 20 nmol/kg.
Data set [3] can be described thus: Thioflavin T fibrillation assay. Particulars: ThT fibrillation assay; peptide 1 mg/mL in 25 mM sodium acetate buffer pH 4.0; 6 days at 37 °C with shaking; >144 h = no increase. The class given is physicochemical. The source says:
Peptide aggregation that form fibrils is an indication of physical instability. Fibril formation in solution poses a significant risk for the stability of injectable peptide drug products. Thioflavin T (ThT) fibrillation assay is a useful tool to assess the aggregation kinetics of a peptide or protein under accelerated and stressed conditions that can be used to forecast the long-term viability of a compound in solution. ThT can selectively bind amyloid fibrils and the resultant complex emits strong fluorescence signal at 482 nm when excited at 450 nm (Anal Biochem. 1989 Mar;177(2):244-9). Monitoring of the change in fluorescence signal is an established method to study the fibril forming potential of peptides and proteins. ThT (purchased from Sigma Aldrich) stock solution is prepared by dissolving the ThT powder in Milli-Q water and filtered to obtain a 0.25 mM solution. The concentration of the solution is measured at 412 nm using an extinction coefficient of 36 mM^−1cm^−1. Test peptides were dissolved at 1 mg/mL in 25 mM sodium acetate buffer pH 4.0. 100 μL aliquot of peptide solution and 5 μL aliquot of ThT solution were placed in a clear bottom black fluorescence 96-well plate. 5 replicates of each test samples were placed in zo the same row of the plate. Buffer was placed in control wells for baseline correction. All empty wells were filled with water to prevent evaporation. The plate was sealed with aluminium seal and placed in fluorescence plate reader and incubated for 6 days at 37 ° C. with intermittent orbital shaking at 500 to 750 rpm. The fluorescence intensity was measured every 30 min using excitation at 444 nm and emission at 480 nm. The fibril forming potential of the test peptides was determined by measuring the average time taken to detect an increase in baseline corrected fluorescence intensity.

Results on four compounds are retold here after patent publication US20240067693A1, “POLYPEPTIDES AND USES THEREOF” (MEDIMMUNE LIMITED, priority 2020, published 2024).

Numbered stars: 1 amine (or outer) side, 2 acyl side, 3 side chain; on linkers, the order of the positions; unused ones are H or OH. Bridge positions count the residues as written; N and C are the ends. Square brackets hold non-standard residues; d marks the D form. Side chains are listed from the residue outwards. Peptide text beside a SMILES is read from it. * marks the point of attachment. C20 diacid = O=C(O)CCCCCCCCCCCCCCCCCCC(=O)*; C18 diacid = O=C(O)CCCCCCCCCCCCCCCCC(=O)*; γGlu = O=C(O)[C@H](CCC(=O)[*:2])N[*:1]; Dab = NCC[C@H](N)C(=O)O; Aib = CC(C)(N)C(=O)O

The term EC50 denotes the concentration at which the effect is half-maximal. What is called half-life is how long it takes for the measured level to halve. Lower therefore signals rapid decline. For the compound `CC[C@H](C)[C@H](NC(=O)[C@H](C)NC(=O)[C@@H]1CCCN1C(=O)[C@H](Cc1ccccc1)NC(=O)[C@H](CC(N)=O)NC(=O)C(C)(C)NC(=O)[C@H](CO)NC(=O)[C@H](CO)NC(=O)[C@H](Cc1c[nH]cn1)NC(=O)[C@@H](NC(=O)[C@H](CC(C)C)NC(=O)[C@H](Cc1ccccc1)NC(=O)[C@H](CC(N)=O)NC(=O)[C@H](C)NC(=O)[C@H](CC(C)C)NC(=O)[C@H](CCCNC(=N)N)NC(=O)[C@H](CCC(N)=O)NC(=O)[C@@H](NC(=O)[C@H](C)NC(=O)[C@@H]1CSSC[C@H](NC(=O)[C@@H](N)CCCCNC(=O)CC[C@H](NC(=O)CC[C@H](NC(=O)CCCCCCCCCCCCCCCCCCC(=O)O)C(=O)O)C(=O)O)C(=O)N[C@@H](CC(N)=O)C(=O)N[C@@H]([C@@H](C)O)C(=O)N[C@@H](C)C(=O)N[C@@H]([C@@H](C)O)C(=O)N1)[C@@H](C)O)C(C)C)C(=O)N[C@@H](CC(C)C)C(=O)N[C@@H](CO)C(=O)N1CCC[C@H]1C(=O)N[C@H](C(=O)N[C@@H](CC(N)=O)C(=O)N[C@H](C(=O)NCC(=O)N[C@@H](CO)C(=O)N[C@@H](CC(N)=O)C(=O)N[C@H](C(=O)N[C@@H](Cc1ccc(O)cc1)C(N)=O)[C@@H](C)O)C(C)C)[C@@H](C)O` [Peptide 117, K(γE-γE-C20diacid)[CNTATC]ATQRLANFLVHSS(Aib)NFPAILSPTNVGSNTY-amide] (H-K([γGlu-γGlu-C20 diacid])CNTATCATQRLANFLVHSS[Aib]NFPAILSPTNVGSNTY-NH2; disulfide 2-7; N-terminus assumed), the “Ratio (selectivity hAMYR vs hCTR, ratio of EC50 values at the two receptors)” value in data set [1] is listed as 4. For the same compound, the 50% effective concentration (EC50) in data set [1] worked out at 770 pM; in data set [2], 3190 pM. For the same compound, the half-life is 9.8 h in “in vivo” (iv) and 12.9 h in “in vivo” (sc).

`CC[C@H](C)[C@H](NC(=O)[C@@H]1CCCN1C(=O)CNC(=O)[C@H](Cc1ccccc1)NC(=O)[C@H](CC(N)=O)NC(=O)C(C)(C)NC(=O)[C@H](CO)NC(=O)[C@H](CO)NC(=O)[C@H](Cc1c[nH]cn1)NC(=O)[C@@H](NC(=O)[C@H](CC(C)C)NC(=O)[C@H](Cc1ccccc1)NC(=O)[C@H](CC(N)=O)NC(=O)[C@H](C)NC(=O)[C@H](CC(C)C)NC(=O)[C@H](CCCNC(=N)N)NC(=O)[C@H](CCC(N)=O)NC(=O)[C@@H](NC(=O)[C@H](C)NC(=O)[C@@H]1CSSC[C@H](NC(=O)[C@@H](N)CCCCNC(=O)CC[C@H](NC(=O)CCCCCCCCCCCCCCCCC(=O)O)C(=O)O)C(=O)N[C@@H](CC(N)=O)C(=O)N[C@@H]([C@@H](C)O)C(=O)N[C@@H](C)C(=O)N[C@@H]([C@@H](C)O)C(=O)N1)[C@@H](C)O)C(C)C)C(=O)N[C@@H](CC(C)C)C(=O)N1CCC[C@H]1C(=O)N1CCC[C@H]1C(=O)N[C@H](C(=O)N[C@@H](CC(N)=O)C(=O)N[C@H](C(=O)NCC(=O)N[C@@H](CO)C(=O)N[C@@H](CCCNC(=N)N)C(=O)N[C@H](C(=O)N[C@@H](Cc1ccc(O)cc1)C(N)=O)[C@@H](C)O)C(C)C)[C@@H](C)O` [Peptide 64, K(γE-C18diacid)[CNTATC]ATQRLANFLVHSS(Aib)NFGPILPPTNVGSRTY-amide] (H-K([γGlu-C18 diacid])CNTATCATQRLANFLVHSS[Aib]NFGPILPPTNVGSRTY-NH2; disulfide 2-7; N-terminus assumed): the “Ratio (selectivity hAMYR vs hCTR, ratio of EC50 values at the two receptors)” value in data set [1] was 9. The 50% effective concentration (EC50) in data set [1] stood at 149 pM; in data set [2], 1280 pM. The values for the half-life in the data set “in vivo” (iv) and in the data set “in vivo” (sc) were 6 h and 5 h, respectively.

For `CC[C@H](C)[C@H](NC(=O)[C@@H]1CCCN1C(=O)CNC(=O)[C@H](Cc1ccccc1)NC(=O)[C@H](CC(N)=O)NC(=O)[C@H](CCN)NC(=O)[C@H](CO)NC(=O)[C@H](CO)NC(=O)[C@H](Cc1c[nH]cn1)NC(=O)[C@@H](NC(=O)[C@H](CC(C)C)NC(=O)[C@H](Cc1ccccc1)NC(=O)[C@H](CC(N)=O)NC(=O)[C@H](C)NC(=O)[C@H](CC(C)C)NC(=O)[C@H](CCCNC(=N)N)NC(=O)[C@H](CCC(N)=O)NC(=O)[C@@H](NC(=O)[C@H](C)NC(=O)[C@@H]1CSSC[C@H](NC(=O)[C@H](CCCCN)NC(=O)[C@@H](N)CCCCNC(=O)CC[C@H](NC(=O)CCCCCCCCCCCCCCCCC(=O)O)C(=O)O)C(=O)N[C@@H](CC(N)=O)C(=O)N[C@@H]([C@@H](C)O)C(=O)N[C@@H](C)C(=O)N[C@@H]([C@@H](C)O)C(=O)N1)[C@@H](C)O)C(C)C)C(=O)N[C@@H](CC(C)C)C(=O)N1CCC[C@H]1C(=O)N1CCC[C@H]1C(=O)N[C@H](C(=O)N[C@@H](CCC(=O)O)C(=O)N[C@H](C(=O)NCC(=O)N[C@@H](CO)C(=O)N[C@@H](CC(N)=O)C(=O)N[C@H](C(=O)N[C@@H](Cc1ccc(O)cc1)C(N)=O)[C@@H](C)O)C(C)C)[C@@H](C)O` [Peptide 28, K(γE-C18diacid)K[CNTATC]ATQRLANFLVHSS(Dab)NFGPILPPTEVGSNTY-amide] (H-K([γGlu-C18 diacid])KCNTATCATQRLANFLVHSS[Dab]NFGPILPPTEVGSNTY-NH2; disulfide 3-8; N-terminus assumed), in data set [1], the “Ratio (selectivity hAMYR vs hCTR, ratio of EC50 values at the two receptors)” value amounted to 23 and the EC50 turned out to be 390 pM. The EC50 in data set [2] came out at 9140 pM. In addition, the “Time taken to detect increase in fluorescence intensity” value in data set [3] stood at 45 h.

With `CC[C@H](C)[C@H](NC(=O)[C@@H]1CCCN1C(=O)CNC(=O)[C@H](Cc1ccccc1)NC(=O)[C@H](CC(N)=O)NC(=O)[C@H](CC(N)=O)NC(=O)[C@H](CO)NC(=O)[C@H](CO)NC(=O)[C@H](Cc1c[nH]cn1)NC(=O)[C@@H](NC(=O)[C@H](CC(C)C)NC(=O)[C@H](Cc1ccccc1)NC(=O)[C@H](CC(N)=O)NC(=O)[C@H](C)NC(=O)[C@H](CC(C)C)NC(=O)[C@H](CCCNC(=N)N)NC(=O)[C@H](CCC(N)=O)NC(=O)[C@@H](NC(=O)[C@H](C)NC(=O)[C@@H]1CSSC[C@H](NC(=O)[C@@H](N)CCCCNC(=O)CC[C@H](NC(=O)CCCCCCCCCCCCCCCCC(=O)O)C(=O)O)C(=O)N[C@@H](CC(N)=O)C(=O)N[C@@H]([C@@H](C)O)C(=O)N[C@@H](C)C(=O)N[C@@H]([C@@H](C)O)C(=O)N1)[C@@H](C)O)C(C)C)C(=O)N[C@@H](CC(C)C)C(=O)N1CCC[C@@H]1C(=O)N1CCC[C@H]1C(=O)N[C@H](C(=O)N[C@@H](CC(N)=O)C(=O)N[C@H](C(=O)NCC(=O)N[C@@H](CO)C(=O)N[C@@H](CC(N)=O)C(=O)N[C@H](C(=O)N[C@@H](Cc1ccc(O)cc1)C(N)=O)[C@@H](C)O)C(C)C)[C@@H](C)O` [Peptide 104] (H-K([γGlu-C18 diacid])CNTATCATQRLANFLVHSSNNFGPIL[dP]PTNVGSNTY-NH2; disulfide 2-7; N-terminus assumed), in data set [1], the “Ratio (selectivity hAMYR vs hCTR, ratio of EC50 values at the two receptors)” value stood at 23 and the EC50 is 79 pM. The half-maximal effective concentration (EC50) in data set [2] came out at 1820 pM. Further, in data set [3], the “Time taken to detect increase in fluorescence intensity” value is on record as less than 5 h.
